The source of these data is patent US8969516B2, “Method of hydrolysis of peptide bond” (priority 2006, dated 2015).

The nature of the data set: MALDI-TOF screening of Ni^2+ dependent hydrolysis in a combinatorial peptide library. In kind it is physicochemical. The conditions noted are these: CH3CO-Gly-Ala-Ser-X-His-Z-Lys-Phe-Leu-NH2 library, Ni^2+ 2 mM, pH 8.2, 10 mM Tris, score=24/tm. The method, boiled down:
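Ni2+ 2 mM, peptide pool 1 mM (total), 10 mM Tris pH 8.2; 37 °C and 45 °C in parallel; MS aliquots at 2/4/6/8 h; products detected visually. X: all proteinogenic residues except Asp, Glu, Cys; Z: all except Cys.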

In the case of Ac-GASMHEKFL-NH2 [SMHE], the “hydrolysis score from MALDI-TOF screening” value (from here on “hydrolysis score”) reads like this: (37° C.) 0 (a score of 0 if no trace of the product of hydrolysis was seen after 8 hours of incubation); (45° C.) 0 (a score of 0 if no trace of the product of hydrolysis was seen after 8 hours of incubation).
In the case of Ac-GASMHFKFL-NH2 [SMHF], the “hydrolysis score” value runs as follows: (37° C.) 3 (a score of 3 for detection at 8 hours); (45° C.) 4 (a score of 4 for detection at 6 hours).
The like results for Ac-GASMHGKFL-NH2 [SMHG] were, in that order, 0 (a score of 0 if no trace of the product of hydrolysis was seen after 8 hours of incubation) and 0 (a score of 0 if no trace of the product of hydrolysis was seen after 8 hours of incubation).
With Ac-GASMHHKFL-NH2 [SMHH], the “hydrolysis score” value was 0 (a score of 0 if no trace of the product of hydrolysis was seen after 8 hours of incubation) (37° C.) and 3 (a score of 3 for detection at 8 hours) (45° C.).
For the substance Ac-GASMHIKFL-NH2 [SMHI], the “hydrolysis score” value reads like this: (37° C.) 4 (a score of 4 for detection at 6 hours); (45° C.) 12 (a score of 12, if it was seen to be partially hydrolysed at 2 hours).
Take Ac-GASMHKKFL-NH2 [SMHK]: the “hydrolysis score” value reads like this: (37° C.) 3 (a score of 3 for detection at 8 hours); (45° C.) 6 (a score of 6 for detection at 4 hours).
Consider Ac-GASMHLKFL-NH2 [SMHL], for which the “hydrolysis score” value (37° C.) is recorded as 4 (a score of 4 for detection at 6 hours) and the “hydrolysis score” value (45° C.) is 12 (a score of 12, if it was seen to be partially hydrolysed at 2 hours).
The matching figures for Ac-GASMHMKFL-NH2 [SMHM]: 3 (a score of 3 for detection at 8 hours) and 3 (a score of 3 for detection at 8 hours).
As for Ac-GASMHNKFL-NH2 [SMHN], the “hydrolysis score” value by setting is: (37° C.) 0 (a score of 0 if no trace of the product of hydrolysis was seen after 8 hours of incubation); (45° C.) 0 (a score of 0 if no trace of the product of hydrolysis was seen after 8 hours of incubation).
Regarding Ac-GASMHPKFL-NH2 [SMHP], the “hydrolysis score” value by setting is: (37° C.) 0 (a score of 0 if no trace of the product of hydrolysis was seen after 8 hours of incubation); (45° C.) 0 (a score of 0 if no trace of the product of hydrolysis was seen after 8 hours of incubation).
On to Ac-GASMHQKFL-NH2 [SMHQ], for which the “hydrolysis score” value (37° C.) was 0 (a score of 0 if no trace of the product of hydrolysis was seen after 8 hours of incubation) and the “hydrolysis score” value (45° C.) is reported as 0 (a score of 0 if no trace of the product of hydrolysis was seen after 8 hours of incubation).
In the case of Ac-GASMHRKFL-NH2 [SMHR], the “hydrolysis score” value reads like this: (37° C.) 4 (a score of 4 for detection at 6 hours); (45° C.) 6 (a score of 6 for detection at 4 hours).
Turning to Ac-GASMHSKFL-NH2 [SMHS], the “hydrolysis score” value (37° C.) was 0 (a score of 0 if no trace of the product of hydrolysis was seen after 8 hours of incubation) and the “hydrolysis score” value (45° C.) is 3 (a score of 3 for detection at 8 hours).
In the case of Ac-GASMHTKFL-NH2 [SMHT], the “hydrolysis score” value was 0 (a score of 0 if no trace of the product of hydrolysis was seen after 8 hours of incubation) (37° C.) and 0 (a score of 0 if no trace of the product of hydrolysis was seen after 8 hours of incubation) (45° C.).
Consider Ac-GASMHVKFL-NH2 [SMHV], for which the “hydrolysis score” value by setting is: (37° C.) 3 (a score of 3 for detection at 8 hours); (45° C.) 6 (a score of 6 for detection at 4 hours).
The like results for Ac-GASMHWKFL-NH2 [SMHW] were, in that order, 4 (a score of 4 for detection at 6 hours) and 6 (a score of 6 for detection at 4 hours).
Consider Ac-GASMHYKFL-NH2 [SMHY], for which the “hydrolysis score” value (37° C.) is on record as 3 (a score of 3 for detection at 8 hours) and the “hydrolysis score” value (45° C.) was 4 (a score of 4 for detection at 6 hours).
The like results for Ac-GASNHAKFL-NH2 [SNHA] were, in that order, 0 (a score of 0 if no trace of the product of hydrolysis was seen after 8 hours of incubation) and 0 (a score of 0 if no trace of the product of hydrolysis was seen after 8 hours of incubation).
Take Ac-GASNHDKFL-NH2 [SNHD]: the “hydrolysis score” value reads like this: (37° C.) 0 (a score of 0 if no trace of the product of hydrolysis was seen after 8 hours of incubation); (45° C.) 0 (a score of 0 if no trace of the product of hydrolysis was seen after 8 hours of incubation).
Regarding Ac-GASNHEKFL-NH2 [SNHE], the “hydrolysis score” value is on record as 0 (a score of 0 if no trace of the product of hydrolysis was seen after 8 hours of incubation) (37° C.) and 0 (a score of 0 if no trace of the product of hydrolysis was seen after 8 hours of incubation) (45° C.).
Ac-GASNHFKFL-NH2 [SNHF]: the “hydrolysis score” value is 3 (a score of 3 for detection at 8 hours) (37° C.) and 3 (a score of 3 for detection at 8 hours) (45° C.).
As for Ac-GASNHGKFL-NH2 [SNHG], the “hydrolysis score” value is, setting by setting: (37° C.) 0 (a score of 0 if no trace of the product of hydrolysis was seen after 8 hours of incubation); (45° C.) 0 (a score of 0 if no trace of the product of hydrolysis was seen after 8 hours of incubation).
For the substance Ac-GASNHHKFL-NH2 [SNHH], the “hydrolysis score” value is recorded as 0 (a score of 0 if no trace of the product of hydrolysis was seen after 8 hours of incubation) (37° C.) and 3 (a score of 3 for detection at 8 hours) (45° C.).
The like results for Ac-GASNHIKFL-NH2 [SNHI] were, in that order, 4 (a score of 4 for detection at 6 hours) and 4 (a score of 4 for detection at 6 hours).
As to Ac-GASNHKKFL-NH2 [SNHK], the “hydrolysis score” value (37° C.) was 4 (a score of 4 for detection at 6 hours) and the “hydrolysis score” value (45° C.) is reported as 4 (a score of 4 for detection at 6 hours).
In the case of Ac-GASNHLKFL-NH2 [SNHL], the “hydrolysis score” value by setting is: (37° C.) 4 (a score of 4 for detection at 6 hours); (45° C.) 4 (a score of 4 for detection at 6 hours).
As to Ac-GASNHMKFL-NH2 [SNHM], the “hydrolysis score” value runs as follows: (37° C.) 0 (a score of 0 if no trace of the product of hydrolysis was seen after 8 hours of incubation); (45° C.) 0 (a score of 0 if no trace of the product of hydrolysis was seen after 8 hours of incubation).
With Ac-GASNHNKFL-NH2 [SNHN], the “hydrolysis score” value reads like this: (37° C.) 0 (a score of 0 if no trace of the product of hydrolysis was seen after 8 hours of incubation); (45° C.) 0 (a score of 0 if no trace of the product of hydrolysis was seen after 8 hours of incubation).
Take Ac-GASNHPKFL-NH2 [SNHP]: the “hydrolysis score” value (37° C.) was 0 (a score of 0 if no trace of the product of hydrolysis was seen after 8 hours of incubation) and the “hydrolysis score” value (45° C.) was 0 (a score of 0 if no trace of the product of hydrolysis was seen after 8 hours of incubation).
As to Ac-GASNHQKFL-NH2 [SNHQ], the “hydrolysis score” value is listed as 0 (a score of 0 if no trace of the product of hydrolysis was seen after 8 hours of incubation) (37° C.) and 0 (a score of 0 if no trace of the product of hydrolysis was seen after 8 hours of incubation) (45° C.).
Consider Ac-GASNHRKFL-NH2 [SNHR], for which the “hydrolysis score” value by setting is: (37° C.) 6 (a score of 6 for detection at 4 hours); (45° C.) 6 (a score of 6 for detection at 4 hours).
Take Ac-GASNHSKFL-NH2 [SNHS]: the “hydrolysis score” value is reported as 0 (a score of 0 if no trace of the product of hydrolysis was seen after 8 hours of incubation) (37° C.) and 0 (a score of 0 if no trace of the product of hydrolysis was seen after 8 hours of incubation) (45° C.).
Turning to Ac-GASNHTKFL-NH2 [SNHT], the “hydrolysis score” value (37° C.) is given as 0 (a score of 0 if no trace of the product of hydrolysis was seen after 8 hours of incubation) and the “hydrolysis score” value (45° C.) was 0 (a score of 0 if no trace of the product of hydrolysis was seen after 8 hours of incubation).
As for Ac-GASNHVKFL-NH2 [SNHV], the “hydrolysis score” value (37° C.) is reported as 3 (a score of 3 for detection at 8 hours) and the “hydrolysis score” value (45° C.) is 3 (a score of 3 for detection at 8 hours).
Consider Ac-GASNHWKFL-NH2 [SNHW], for which the “hydrolysis score” value was 6 (a score of 6 for detection at 4 hours) (37° C.) and 6 (a score of 6 for detection at 4 hours) (45° C.).
Consider Ac-GASNHYKFL-NH2 [SNHY], for which the “hydrolysis score” value is 3 (a score of 3 for detection at 8 hours) (37° C.) and 3 (a score of 3 for detection at 8 hours) (45° C.).
For Ac-GASPHAKFL-NH2 [SPHA], the “hydrolysis score” value (37° C.) is given as 0 (a score of 0 if no trace of the product of hydrolysis was seen after 8 hours of incubation) and the “hydrolysis score” value (45° C.) is 0 (a score of 0 if no trace of the product of hydrolysis was seen after 8 hours of incubation).
For the substance Ac-GASPHDKFL-NH2 [SPHD], the “hydrolysis score” value (37° C.) is on record as 0 (a score of 0 if no trace of the product of hydrolysis was seen after 8 hours of incubation) and the “hydrolysis score” value (45° C.) is reported as 0 (a score of 0 if no trace of the product of hydrolysis was seen after 8 hours of incubation).
